Data: paper PMC5524711 (Scientific Reports, 2017)
Read-outs that look alike come from different tables or passages of the source.

Assays:
α1β2γ2 GABAA receptors = target: T1, α1β2γ2 GABAA receptors (UniProt P18508+P47870+P62813); test: Xenopus oocyte two-electrode voltage clamp; assay type: cell-based, rat and human
T1 construct: expressed in transfected cells; host or cells: Xenopus laevis oocytes (cRNA injection)

medial CeA neurons = test: Brain slice whole cell patch clamp recording; assay type: cell-based, rat; conditions: 100 μM, focally applied following DCUK-OEt (0.5 µM)
Procedure: Slices were prepared from brains of 5 adult male Wistar rats (250–350 g) as described by Herman et al.[56]. A single slice was transferred to a recording chamber mounted on the stage of an upright microscope (Olympus BX50WI).
Neurons were visualized and whole cell patch clamp recordings were made as previously described[56]. Series resistance was typically <15 MΩ and was continuously monitored with a hyperpolarizing 10 mV pulse. Electrophysiological properties of cells were determined by pClamp 10 Clampex software online during voltage-clamp recording using a 5 mV pulse delivered after breaking into the cell. The resting membrane potential was determined online after breaking into the cell using the zero current (I = 0) recording configuration and the liquid junction potential was included in the determination. […]
Frequency, amplitude and decay of spontaneous inhibitory postsynaptic currents (sIPSCs) were analyzed and visually confirmed using a semi-automated threshold based mini detection software (Mini Analysis, Synaptosoft Inc.). Averages of sIPSC characteristics were determined from baseline and experimental drug conditions containing a minimum of 60 events (time period of analysis varied as a product of individual event frequency) and decay kinetics were determined using exponential curve fittings and reported as decay time (ms). […]

α1β2 GABAA receptors = target: T2, α1β2 GABAA receptors (UniProt P47870+P62813); test: Xenopus oocyte two-electrode voltage clamp; assay type: cell-based, rat and human; conditions: a1b2
T2 construct: expressed in transfected cells; host or cells: Xenopus laevis oocytes (cRNA injection)

α1β1γ2 GABAA receptors = target: T3, α1β1γ2 GABAA receptors (Rattus norvegicus, UniProt P15431+P18508+P62813); test: Xenopus oocyte two-electrode voltage clamp; assay type: cell-based; conditions: a1b1g2
T3 construct: expressed in transfected cells; host or cells: Xenopus laevis oocytes (cRNA injection)

α1β3δ GABAA receptors = target: T4, α1β3δ GABAA receptors (Rattus norvegicus, UniProt P18506+P62813+P63079); test: Xenopus oocyte two-electrode voltage clamp; assay type: cell-based; conditions: a1b3d
T4 construct: expressed in transfected cells; host or cells: Xenopus laevis oocytes (cRNA injection)

α4β3δ GABAA receptors [1] = target: T5, α4β3δ GABAA receptors (UniProt P18506+P48169+P63079); test: Xenopus oocyte two-electrode voltage clamp; assay type: cell-based, rat; conditions: a4b3d; [Zn++] 1 µM
T5 construct: expressed in transfected cells; host or cells: Xenopus laevis oocytes (cRNA injection)

[2] = target: T6, α1β2(N265S)γ2 GABAA receptors (UniProt P18508+P47870+P62813, N289S); test: Xenopus oocyte two-electrode voltage clamp; assay type: cell-based, rat and human; conditions: a1b2(N265S)g2
T6 construct: expressed in transfected cells; host or cells: Xenopus laevis oocytes (cRNA injection)

α1β3 GABAA receptors = target: T7, α1β3 GABAA receptors (Rattus norvegicus, UniProt P62813+P63079); test: Xenopus oocyte two-electrode voltage clamp; assay type: cell-based; conditions: a1b3
T7 construct: expressed in transfected cells; host or cells: Xenopus laevis oocytes (cRNA injection)

α5β3 GABAA receptors = target: T8, α5β3 GABAA receptors (UniProt P31644+P63079); test: Xenopus oocyte two-electrode voltage clamp; assay type: cell-based, rat; conditions: a5b3
T8 construct: expressed in transfected cells; host or cells: Xenopus laevis oocytes (cRNA injection)

α1β3γ2 GABAA receptors = target: T9, α1β3γ2 GABAA receptors (Rattus norvegicus, UniProt P18508+P62813+P63079); test: Xenopus oocyte two-electrode voltage clamp; assay type: cell-based; conditions: a1b3g2
T9 construct: expressed in transfected cells; host or cells: Xenopus laevis oocytes (cRNA injection)

α5β3γ2 GABAA receptors = target: T10, α5β3γ2 GABAA receptors (UniProt P18508+P31644+P63079); test: Xenopus oocyte two-electrode voltage clamp; assay type: cell-based, rat; conditions: a5b3g2
T10 construct: expressed in transfected cells; host or cells: Xenopus laevis oocytes (cRNA injection)

α4β3γ2 GABAA receptors [3] = target: T11, α4β3γ2 GABAA receptors (UniProt P18508+P48169+P63079); test: Xenopus oocyte two-electrode voltage clamp; assay type: cell-based, rat; conditions: a4b3g2; [Zn++] 1 µM
T11 construct: expressed in transfected cells; host or cells: Xenopus laevis oocytes (cRNA injection)

α1β2γ1 GABAA receptors = target: T12, α1β2γ1 GABAA receptors (UniProt P47870+P62813+Q8N1C3); test: Xenopus oocyte two-electrode voltage clamp; assay type: cell-based, rat and human; conditions: a1b2g1
T12 construct: expressed in transfected cells; host or cells: Xenopus laevis oocytes (cRNA injection); γ1 cDNA synthesized by GenScript in pGEMHE

α4β3γ2 GABAA receptors [4] = target: T11, α4β3γ2 GABAA receptors; set-up: method as in Borghese et al., 2006; conditions: a4b3g2; ref Borghese et al., 2006; cited from earlier work
α4β3δ GABAA receptors [5] = target: T5, α4β3δ GABAA receptors; set-up: method as in Borghese et al., 2006; conditions: a4b3d; ref Borghese et al., 2006; cited from earlier work
[6] = target: GABAA receptors, benzodiazepine site (washed rat brain membranes); test: [3H]Flunitrazepam binding and displacement; conditions: read-out: [3H]Flunitrazepam Binding, displacement, 1 nM [3H]flunitrazepam, 10 µM GABA
Procedure: Membrane Preparation. These experiments were performed at the University of Colorado Health Sciences Center, Denver, CO. Experiments were approved by the Institutional Animal Care and Use Committee (IACUC) of the University of Colorado, Denver, and were performed in accordance with the NIH Guide for the Care and Use of Laboratory Animals. Male Sprague-Dawley rats (200–250 g) were maintained in an AAALAC-accredited facility and sacrificed by CO2 exposure and decapitation. Brains were removed, and membranes were prepared from the forebrain as described previously. Ligand binding assay. […] Bound and free ligand were separated by rapid filtration under vacuum over Whatman GF/B filters presoaked in buffer in a 24 port Brandel Cell Harvester. Filters were washed with 2 × 5 ml of ice-cold HEPES buffer and dried prior to measurement of bound radioactivity by scintillation counting (Beckman LS3800 scintillation counter) using Ultima Gold XR scintillation cocktail. Analysis of ligand binding data.

[7] = target: GABAA receptors (washed rat brain membranes); test: Displacement of [3H]muscimol binding (PDSP); conditions: 5 nM [3H]muscimol
Procedure: Rat brain membranes were prepared as described in the Protocol Manual on the PDSP website (https://pdspdb.unc.edu/pdspWeb/). […] The final concentration of [^3H]muscimol in the assay mixture was 5 nM. […] Analysis of ligand binding data.

[8] = target: T6, α1β2(N265S)γ2 GABAA receptors; set-up: method as in PMID 19741491; conditions: concentrations up to 1 mM; cited from earlier work

T1 sequence (P62813 28-455): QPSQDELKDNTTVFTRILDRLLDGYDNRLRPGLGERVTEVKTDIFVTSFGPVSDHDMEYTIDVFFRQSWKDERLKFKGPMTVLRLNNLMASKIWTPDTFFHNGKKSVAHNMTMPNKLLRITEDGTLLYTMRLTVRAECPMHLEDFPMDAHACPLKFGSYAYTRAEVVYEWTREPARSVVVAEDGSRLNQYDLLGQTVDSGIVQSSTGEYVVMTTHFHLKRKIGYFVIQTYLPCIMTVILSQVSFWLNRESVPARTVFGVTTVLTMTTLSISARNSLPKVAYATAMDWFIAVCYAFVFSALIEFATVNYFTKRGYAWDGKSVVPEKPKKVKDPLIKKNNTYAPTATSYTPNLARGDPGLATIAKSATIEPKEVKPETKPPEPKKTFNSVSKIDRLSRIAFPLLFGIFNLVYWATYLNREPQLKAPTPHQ
T1 sequence (P47870 26-474 isoform P47870-1 limits assumed): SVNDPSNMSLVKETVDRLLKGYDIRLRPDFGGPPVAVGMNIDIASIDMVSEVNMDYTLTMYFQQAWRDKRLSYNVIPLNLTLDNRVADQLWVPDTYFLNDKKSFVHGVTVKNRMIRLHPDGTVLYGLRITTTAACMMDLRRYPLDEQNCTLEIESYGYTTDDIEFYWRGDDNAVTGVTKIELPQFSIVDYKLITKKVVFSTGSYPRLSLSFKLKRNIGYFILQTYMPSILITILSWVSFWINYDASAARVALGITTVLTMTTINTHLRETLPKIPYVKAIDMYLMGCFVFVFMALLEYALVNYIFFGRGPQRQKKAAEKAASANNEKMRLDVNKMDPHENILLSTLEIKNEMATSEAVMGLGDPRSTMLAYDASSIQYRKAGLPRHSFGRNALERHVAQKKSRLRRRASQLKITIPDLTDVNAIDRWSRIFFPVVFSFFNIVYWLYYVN
T1 sequence (P18508 39-466): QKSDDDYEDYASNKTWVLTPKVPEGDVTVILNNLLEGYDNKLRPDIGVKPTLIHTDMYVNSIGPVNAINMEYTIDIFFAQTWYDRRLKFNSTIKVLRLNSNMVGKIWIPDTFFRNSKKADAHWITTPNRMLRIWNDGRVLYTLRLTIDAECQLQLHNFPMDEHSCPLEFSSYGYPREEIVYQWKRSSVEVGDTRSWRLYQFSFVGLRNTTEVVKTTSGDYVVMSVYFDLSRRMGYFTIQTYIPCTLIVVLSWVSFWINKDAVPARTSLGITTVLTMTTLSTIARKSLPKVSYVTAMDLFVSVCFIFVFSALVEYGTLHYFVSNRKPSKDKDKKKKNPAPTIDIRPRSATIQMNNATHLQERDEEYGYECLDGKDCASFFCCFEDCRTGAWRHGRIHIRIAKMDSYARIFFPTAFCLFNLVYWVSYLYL
T6 sequence (P62813 28-455): as the sequence (P62813 28-455) above
T6 sequence (P47870 25-474 isoform P47870-1 N289S limits assumed): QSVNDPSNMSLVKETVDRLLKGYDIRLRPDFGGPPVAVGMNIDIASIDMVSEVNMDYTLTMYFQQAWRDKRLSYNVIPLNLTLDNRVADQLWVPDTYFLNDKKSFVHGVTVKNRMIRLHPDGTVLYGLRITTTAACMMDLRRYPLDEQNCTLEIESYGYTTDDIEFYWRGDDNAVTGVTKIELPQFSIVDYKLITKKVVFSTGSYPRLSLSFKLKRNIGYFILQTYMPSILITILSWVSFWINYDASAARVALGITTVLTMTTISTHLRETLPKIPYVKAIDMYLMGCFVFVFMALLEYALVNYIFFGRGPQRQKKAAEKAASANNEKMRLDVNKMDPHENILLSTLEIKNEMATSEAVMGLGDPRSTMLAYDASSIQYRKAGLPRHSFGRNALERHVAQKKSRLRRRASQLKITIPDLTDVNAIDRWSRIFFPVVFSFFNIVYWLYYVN
T6 sequence (P18508 39-466): as the sequence (P18508 39-466) above
T11 sequence (P48169 36-554): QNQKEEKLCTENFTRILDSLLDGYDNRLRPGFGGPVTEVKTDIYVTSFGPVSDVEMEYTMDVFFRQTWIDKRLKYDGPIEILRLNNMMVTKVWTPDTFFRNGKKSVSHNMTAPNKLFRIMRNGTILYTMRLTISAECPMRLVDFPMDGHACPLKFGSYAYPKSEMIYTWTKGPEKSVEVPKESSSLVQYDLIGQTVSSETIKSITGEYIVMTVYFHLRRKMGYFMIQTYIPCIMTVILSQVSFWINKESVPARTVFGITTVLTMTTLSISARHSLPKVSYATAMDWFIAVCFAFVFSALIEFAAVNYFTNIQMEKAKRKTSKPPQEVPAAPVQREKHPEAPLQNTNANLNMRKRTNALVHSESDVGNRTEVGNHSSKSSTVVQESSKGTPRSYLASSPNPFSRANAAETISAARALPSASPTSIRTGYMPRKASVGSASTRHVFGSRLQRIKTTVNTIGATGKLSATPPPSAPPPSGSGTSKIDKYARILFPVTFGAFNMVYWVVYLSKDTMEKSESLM
T11 sequence (P63079 26-473): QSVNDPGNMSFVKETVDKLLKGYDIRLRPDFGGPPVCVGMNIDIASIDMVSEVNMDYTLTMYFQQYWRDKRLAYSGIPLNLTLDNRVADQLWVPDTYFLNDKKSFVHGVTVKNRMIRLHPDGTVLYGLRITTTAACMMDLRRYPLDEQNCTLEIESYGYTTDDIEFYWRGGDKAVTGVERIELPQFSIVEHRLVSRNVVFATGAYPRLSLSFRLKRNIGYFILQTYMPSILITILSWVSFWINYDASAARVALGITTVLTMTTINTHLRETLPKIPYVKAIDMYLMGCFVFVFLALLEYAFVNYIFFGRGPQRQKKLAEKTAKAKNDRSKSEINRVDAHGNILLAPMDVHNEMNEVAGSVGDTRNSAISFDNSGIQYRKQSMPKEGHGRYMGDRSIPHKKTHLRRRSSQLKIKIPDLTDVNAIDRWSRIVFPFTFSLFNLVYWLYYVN
T11 sequence (P18508 39-466): as the sequence (P18508 39-466) above
T5 sequence (P48169 36-554): as the sequence (P48169 36-554) above
T5 sequence (P63079 26-473): as the sequence (P63079 26-473) above
T5 sequence (P18506 17-449 limits assumed): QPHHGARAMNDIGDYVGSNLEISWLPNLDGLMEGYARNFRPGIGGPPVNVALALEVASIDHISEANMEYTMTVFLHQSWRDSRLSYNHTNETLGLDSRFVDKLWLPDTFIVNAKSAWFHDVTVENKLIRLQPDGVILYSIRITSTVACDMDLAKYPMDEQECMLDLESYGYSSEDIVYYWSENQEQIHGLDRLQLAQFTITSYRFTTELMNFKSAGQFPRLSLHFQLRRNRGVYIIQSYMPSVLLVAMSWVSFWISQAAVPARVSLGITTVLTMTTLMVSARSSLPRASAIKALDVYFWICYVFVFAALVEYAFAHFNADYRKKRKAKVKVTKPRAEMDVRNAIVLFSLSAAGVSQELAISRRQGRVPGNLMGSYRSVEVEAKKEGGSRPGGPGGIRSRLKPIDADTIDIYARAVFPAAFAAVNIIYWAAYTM
T8 sequence (P31644 32-462): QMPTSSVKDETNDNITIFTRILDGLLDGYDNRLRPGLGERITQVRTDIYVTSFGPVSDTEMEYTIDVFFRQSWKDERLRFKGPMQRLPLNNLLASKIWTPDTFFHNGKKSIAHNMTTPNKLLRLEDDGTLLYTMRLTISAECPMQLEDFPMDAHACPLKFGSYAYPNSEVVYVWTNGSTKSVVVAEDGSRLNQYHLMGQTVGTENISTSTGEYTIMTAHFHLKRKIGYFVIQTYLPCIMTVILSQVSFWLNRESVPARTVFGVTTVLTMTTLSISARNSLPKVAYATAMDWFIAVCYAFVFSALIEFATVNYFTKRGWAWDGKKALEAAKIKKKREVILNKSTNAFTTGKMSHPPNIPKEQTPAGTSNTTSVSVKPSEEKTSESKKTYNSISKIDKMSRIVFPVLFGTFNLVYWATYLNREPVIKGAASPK
T8 sequence (P63079 26-473): as the sequence (P63079 26-473) above
T10 sequence (P31644 32-462): as the sequence (P31644 32-462) above
T10 sequence (P63079 26-473): as the sequence (P63079 26-473) above
T10 sequence (P18508 39-466): as the sequence (P18508 39-466) above
T9 sequence (P62813 28-455): as the sequence (P62813 28-455) above
T9 sequence (P63079 26-473): as the sequence (P63079 26-473) above
T9 sequence (P18508 39-466): as the sequence (P18508 39-466) above
T3 sequence (P62813 28-455): as the sequence (P62813 28-455) above
T3 sequence (P15431 26-474): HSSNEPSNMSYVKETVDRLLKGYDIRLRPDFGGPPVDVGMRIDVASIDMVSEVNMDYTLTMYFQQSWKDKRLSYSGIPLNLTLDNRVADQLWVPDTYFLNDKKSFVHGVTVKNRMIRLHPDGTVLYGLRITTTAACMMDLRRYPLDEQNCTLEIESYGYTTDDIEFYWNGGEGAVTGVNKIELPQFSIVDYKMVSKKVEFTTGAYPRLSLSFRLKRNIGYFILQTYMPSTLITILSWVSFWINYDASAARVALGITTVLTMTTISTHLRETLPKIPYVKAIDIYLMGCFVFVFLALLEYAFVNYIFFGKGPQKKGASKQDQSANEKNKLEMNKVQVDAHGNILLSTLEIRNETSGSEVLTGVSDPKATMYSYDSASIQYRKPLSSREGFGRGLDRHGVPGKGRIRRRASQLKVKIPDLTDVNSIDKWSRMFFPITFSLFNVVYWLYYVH
T3 sequence (P18508 39-466): as the sequence (P18508 39-466) above
T4 sequence (P62813 28-455): as the sequence (P62813 28-455) above
T4 sequence (P63079 26-473): as the sequence (P63079 26-473) above
T4 sequence (P18506 17-449 limits assumed): as the sequence (P18506 17-449 limits assumed) above
T2 sequence (P62813 28-455): as the sequence (P62813 28-455) above
T2 sequence (P47870 26-474 isoform P47870-1 limits assumed): as the sequence (P47870 26-474 isoform P47870-1 limits assumed) above

C[C@]12CC[C@@H](O)C[C@@H]1CC[C@@H]1[C@@H]2CC[C@]2(C)C(c3ccccc3)=CC[C@@H]12 [Compound 17PA, 17-phenyl-(3α,5α)-androst-16-en-3-ol]
inhibition at 10 µM (α1β2γ2 GABAA receptors; read-out: Inhibition by 17PA of DCUK-OEt potentiation of GABA actions): 35%
inhibition at 10 µM (α1β2γ2 GABAA receptors; read-out: Inhibition by 17PA of the potentiating effects of allopregnanolone on GABA-induced currents): 56%

COc1ccc(-c2ccc(=N)n(CCCC(=O)O)n2)cc1 [gabazine]
Holding current when applied after DCUK-OEt (medial CeA neurons): significant reduction in holding current

[Zn+2] [Zn++]
% change of EC10 GABA responses by Zn++ (α1β2γ2 GABAA receptors; a1b2g2, [Zn++] 10 µM): -9 ± 4%
% change of EC10 GABA responses by Zn++ (α1β2 GABAA receptors; [Zn++] 10 µM): -99 ± 1%
% change of EC10 GABA responses by Zn++ (α1β1γ2 GABAA receptors; [Zn++] 100 µM): 21 ± 3%
% change of EC10 GABA responses by Zn++ (α1β3δ GABAA receptors; [Zn++] 1 µM): -35 ± 1%
% change of EC10 GABA responses by Zn++ (α4β3δ GABAA receptors [1]): -31 ± 6%
% change of EC10 GABA responses by Zn++ ([2]; [Zn++] 10 µM): 10 ± 2%
% change of EC10 GABA responses by Zn++ (α1β3 GABAA receptors; [Zn++] 1 µM): -85 ± 3%
% change of EC10 GABA responses by Zn++ (α5β3 GABAA receptors; [Zn++] 10 µM): -89 ± 2%
% change of EC10 GABA responses by Zn++ (α1β3γ2 GABAA receptors; [Zn++] 10 µM): -19 ± 4%
% change of EC10 GABA responses by Zn++ (α5β3γ2 GABAA receptors; [Zn++] 10 µM): -29 ± 6%
% change of EC10 GABA responses by Zn++ (α4β3γ2 GABAA receptors [3]): -43 ± 4%
% change of EC10 GABA responses by Zn++ (α1β2γ1 GABAA receptors; [Zn++] 10 µM): 0.4 ± 1.4%

CCOC(=O)c1ncn2c1CN(C)C(=O)c1cc(F)ccc1-2 [flumazenil]
Potentiation of EC10 GABA responses (α1β2γ2 GABAA receptors): 51 ± 2%

NCCCC(=O)O [GABA, γ-aminobutyric acid]
nH (Hill coefficient of GABA concentration-response curve) (α1β2γ2 GABAA receptors; a1b2g2): 0.99 ± 0.03
nH (Hill coefficient of GABA concentration-response curve) (α4β3γ2 GABAA receptors [4]): 1.01 ± 0.09
nH (Hill coefficient of GABA concentration-response curve) (α1β2 GABAA receptors): 1.19 ± 0.08
nH (Hill coefficient of GABA concentration-response curve) (α4β3δ GABAA receptors [5]): 0.84 ± 0.07
nH (Hill coefficient of GABA concentration-response curve) (α1β1γ2 GABAA receptors): 0.76 ± 0.07
nH (Hill coefficient of GABA concentration-response curve) (α1β3δ GABAA receptors): 0.78 ± 0.07
nH (Hill coefficient of GABA concentration-response curve) [2]: 0.81 ± 0.06
nH (Hill coefficient of GABA concentration-response curve) (α1β3 GABAA receptors): 0.97 ± 0.06
nH (Hill coefficient of GABA concentration-response curve) (α5β3 GABAA receptors): 0.93 ± 0.07
nH (Hill coefficient of GABA concentration-response curve) (α1β3γ2 GABAA receptors): 1.33 ± 0.08
nH (Hill coefficient of GABA concentration-response curve) (α5β3γ2 GABAA receptors): 0.93 ± 0.04
nH (Hill coefficient of GABA concentration-response curve) (α1β2γ1 GABAA receptors): 0.87 ± 0.06

O=C(O)c1cc(NC(=O)N(c2ccccc2)c2ccccc2)c2c(Cl)cc(Cl)cc2n1 [DCUKA, 5,7 dichloro-4-([diphenylcarbamoyl]amino) quinoline-2-carboxylic acid]
Effect of co-applied flumazenil on DCUK actions on α1β2γ2 GABAA receptors (α1β2γ2 GABAA receptors; 20 μM flumazenil, EC10 GABA): did not significantly affect
Effect on submaximal GABA (EC10) currents (α1β2γ2 GABAA receptors; oocytes containing α1β2γ2 GABAA receptors): enhanced
Ki [6]: > 10 µM
Ki [7]: 6.6 ± 1.9 µM

CCOC(=O)c1cncn1[C@H](C)c1ccccc1 [Etomidate, etomidate]
GABA potentiating effect at α1β2(N265S)γ2 [8]: no GABA potentiating effect
